Laboratory results taken from US9278978B2, “6-Alkynyl Pyridine” (Boehringer Ingelheim International GmbH, priority 2013, dated 2016).
pIC50: −log10 of the molar value.

These compounds were tested against cIAP1 BIR3 (Homo sapiens (Human), UniProt Q13490) (assay: cIAP1 BIR3 binding assay (DELFIA), BIR3 domain-SMAC peptide interaction). Settings: not given.
Method: XIAP BIR3 and cIAP1 BIR3 Binding Assays (DELFIA)
Peptide […]-Lys(Biotin), representing the N-terminus of mature human SMAC(SMAC peptide), was used as interaction partner in the protein-peptide interaction assay.
BIR3 domains (10 nM) were incubated with SMAC peptide (10 nM) in assay buffer (50 mM Tris, 120 mM NaCl, 0.1% BSA, 1 mM DTT, 0.05% TritonX100) for one hour at room temperature in the presence of inhibitory compounds. The assay mixture was transferred to a strepatvidin coated plate and incubated for one hour at room temperature to allow binding of the biotinylated peptide and associated BIR3 domains to the plate. After several washing steps Eu labeled anti-GST antibody (e.g. Perkin Elmer DELFIA Eu-N1-antiGST AD0250) was added to detect BIR3 domain-SMAC peptide interactions according to Perkin Elmer's instructions. […] Time resolved Europium fluorescence was measured in a Wallac Victor using Standard assay settings.
DELFIA assay results were plotted against compound concentrations and Software GraphPad Prizm was used to calculate half maximal inhibitory concentrations (IC50 values).

| Compound | pIC50 |
| --- | --- |
| CNC(C)C(=O)Nc1cc(-c2ncnc3ncn(C)c23)cc(C#Cc2ccc3c(C)nccc3c2)n1 (centres unmarked) [Example 6, N-[4-(7-methyl-7H-purin-6-yl)-6-[2-(1-methylisoquinolin-6-yl)ethynyl]pyridin-2-yl]-2-(methylamino)propanamide] | 9.00 |
| CNC(C)C(=O)Nc1cc(-c2ncnc3ncn(C)c23)cc(C#Cc2ccccc2)n1 (centres unmarked) [Example 7, N-[4-(7-methyl-7H-purin-6-yl)-6-(2-phenylethynyl)pyridin-2-yl]-2-(methylamino)propanamide] | 8.70 |
| CNC(C)C(=O)Nc1cc(-c2ncnc3ncn(C)c23)cc(C#Cc2ccc3c(ccc(=O)n3C)c2)n1 (centres unmarked) [Example 8, N-{6-[2-(1-methyl-2-oxo-1,2-dihydroquinolin-6-yl)ethynyl]-4-(7-methyl-7H-purin-6-yl)pyridin-2-yl}-2-(methylamino)propanamide] | 9.00 |
| CNC(C)C(=O)Nc1cc(-c2ncnc3ncn(C)c23)cc(C#Cc2ccc(-n3cnc(C)c3)cc2)n1 (centres unmarked) [Example 9, N-(6-{2-[4-(4-methyl-1H-imidazol-1-yl)phenyl]ethynyl}-4-(7-methyl-7H-purin-6-yl)pyridin-2-yl)-2-(methylamino)propanamide] | 8.70 |

Same assay, conditions: BIR3 domain 10 nM, SMAC peptide 10 nM; (S)-isomer (examples 1-34, 38-43) or racemate (examples 35-37); read-out: cIAP1 BIR-3 IC50

| Compound | pIC50 |
| --- | --- |
| CNC(C)C(=O)Nc1cc(-c2ccncc2)c(-c2cncnc2)c(C#Cc2ccccc2)n1 (racemic) [Example 35, 2-(methylamino)-N-[6-(2-phenylethynyl)-4-(pyridin-4-yl)-5-(pyrimidin-5-yl)pyridin-2-yl]propanamide] | 6.60 |
| CNC(C)C(=O)Nc1cc(-c2cccnc2)c(-c2cncnc2)c(C#Cc2ccccc2)n1 (racemic) [Example 36, 2-(methylamino)-N-[6-(2-phenylethynyl)-4-(pyridin-3-yl)-5-(pyrimidin-5-yl)-pyridin-2-yl]propanamide] | 6.76 |
| CCNC(CC)C(=O)Nc1cc(-c2ncnc3c(C)nn(C)c23)cc(C#Cc2ccc3c(C)nccc3c2)n1 (racemic) [Example 37, N-(4-{1,3-dimethyl-1H-pyrazolo[4,3-d]pyrimidin-7-yl}-6-[2-(1-methylisoquinolin-6-yl)ethynyl]pyridin-2-yl)-2-(ethylamino)butanamide] | 8.22 |
| CNC(C)C(=O)Nc1cc(-c2ncnc3c(C)nn(C)c23)cc(C#Cc2ccc3c(cnn3C)c2)n1 (centres unmarked) [Example 1, N-(4-{1,3-dimethyl-1H-pyrazolo[4,3-d]pyrimidin-7-yl}-6-[2-(1-methyl-1H-indazol-5-yl)ethynyl]pyridin-2-yl)-2-(methylamino)propanamide] | 9.00 |
| CNC(C)C(=O)Nc1cc(-c2ncnc3c(C)nn(C)c23)cc(C#Cc2ccc3c(C)nccc3c2)n1 (centres unmarked) [Example 2, N-(4-{1,3-dimethyl-1H-pyrazolo[4,3-d]pyrimidin-7-yl}-6-[2-(1-methylisoquinolin-6-yl)ethynyl]pyridin-2-yl)-2-(methylamino)propanamide] | 9.00 |
| CNC(C)C(=O)Nc1cc(-c2ncnc3c(C)nn(C)c23)cc(C#Cc2cc(C)nc3c(F)cccc23)n1 (centres unmarked) [Example 3, N-(4-{1,3-dimethyl-1H-pyrazolo[4,3-d]pyrimidin-7-yl}-6-[2-(8-fluoro-2-methylquinolin-4-yl)ethynyl]pyridin-2-yl)-2-(methylamino)propanamide] | 9.00 |
| CNC(C)C(=O)Nc1cc(-c2ncnc3c(C)nn(C)c23)cc(C#Cc2ccn3c(C)ncc3c2)n1 (centres unmarked) [Example 4, N-(4-{1,3-dimethyl-1H-pyrazolo[4,3-d]pyrimidin-7-yl}-6-(2-{3-methylimidazo[1,5-a]pyridin-7-yl}ethynyl)pyridin-2-yl)-2-(methylamino)propanamide] | 9.00 |
| CNC(C)C(=O)Nc1cc(-c2c(OC)ccc3nc(C)ccc23)cc(C#Cc2ccccc2)n1 (centres unmarked) [Example 5, N-[4-(6-methoxy-2-methylquinolin-5-yl)-6-(2-phenylethynyl)pyridin-2-yl]-2-(methylamino)propanamide] | 7.23 |
| CNC(C)C(=O)Nc1cc(-c2ncnc3oc(C)c(C)c23)cc(C#Cc2ccccc2)n1 (centres unmarked) [Example 10, N-(4-{5,6-dimethylfuro[2,3-d]pyrimidin-4-yl}-6-(2-phenylethynyl)pyridin-2-yl)-2-(methylamino)propanamide] | 8.70 |
| CNC(C)C(=O)Nc1cc(-c2cccc3nc(C)c(C)n23)cc(C#Cc2ccc3c(C)nccc3c2)n1 (centres unmarked) [Example 11, N-(4-{2,3-dimethylimidazo[1,2-a]pyridin-5-yl}-6-[2-(1-methylisoquinolin-6-yl)ethynyl]pyridin-2-yl)-2-(methylamino)propanamide] | 9.00 |
| CNC(C)C(=O)Nc1cc(-c2cccc3cnn(C)c23)cc(C#Cc2ccc3c(c2)CC(=O)N3C)n1 (centres unmarked) [Example 12, N-[4-(1-methyl-1H-indazol-7-yl)-6-[2-(1-methyl-2-oxo-2,3-dihydro-1H-indol-5-yl)ethynyl]pyridin-2-yl]-2-(methylamino)propanamide] | 7.96 |
| CNC(C)C(=O)Nc1cc(-c2cnc3cccc(C)n23)cc(C#Cc2ccc3c(C)nccc3c2)n1 (centres unmarked) [Example 13, 2-(methylamino)-N-(4-{5-methylimidazo[1,2-a]pyridin-3-yl}-6-[2-(1-methylisoquinolin-6-yl)ethynyl]pyridin-2-yl)propanamide] | 9.00 |
| CNC(C)C(=O)Nc1cc(-c2c(C)nc(C)c3c(=O)n(C)n(C)c23)cc(C#Cc2ccc3c(C)nccc3c2)n1 (centres unmarked) [Example 14, 2-(methylamino)-N-{6-[2-(1-methylisoquinolin-6-yl)ethynyl]-4-{1,2,4,6-tetramethyl-3-oxo-1H,2H,3H-pyrazolo[4,3-c]pyridin-7-yl}pyridin-2-yl}propanamide] | 9.00 |
| CNC(C)C(=O)Nc1cc(-c2nc(C)nc3c(C)nn(C)c23)cc(C#Cc2ccc3c(ccc(=O)n3C)c2)n1 (centres unmarked) [Example 15, N-{6-[2-(1-methyl-2-oxo-1,2-dihydroquinolin-6-yl)ethynyl]-4-{trimethyl-1H-pyrazolo[4,3-d]pyrimidin-7-yl}pyridin-2-yl}-2-(methylamino)propanamide] | 9.00 |
| CNC(C)C(=O)Nc1cc(-c2nc(C)nc3nn(C)c(C)c23)cc(C#Cc2ccc3c(C)nccc3c2)n1 (centres unmarked) [Example 18, 2-(methylamino)-N-{6-[2-(1-methylisoquinolin-6-yl)ethynyl]-4-{trimethyl-2H-pyrazolo[3,4-d]pyrimidin-4-yl}pyridin-2-yl}-propanamide] | 9.00 |
| CNC(C)C(=O)Nc1cc(-c2nc(C)nc3nn(C)c(C)c23)cc(C#Cc2ccc3c(ccc(=O)n3C)c2)n1 (centres unmarked) [Example 19, N-{6-[2-(1-methyl-2-oxo-1,2-dihydroquinolin-6-yl)ethynyl]-4-{trimethyl-2H-pyrazolo[3,4-d]pyrimidin-4-yl}pyridin-2-yl}-2-(methylamino)propanamide] | 8.70 |
| CNC(C)C(=O)Nc1cc(-c2nc(C)nc3nn(C)c(C)c23)cc(C#Cc2ccc3c(cnn3C)c2)n1 (centres unmarked) [Example 20, N-{6-[2-(1-methyl-1H-indazol-5-yl)ethynyl]-4-{trimethyl-2H-pyrazolo[3,4-d]pyrimidin-4-yl}pyridin-2-yl}-2-(methylamino)-propanamide] | 9.00 |
| CNC(C)C(=O)Nc1cc(-c2nc(C)nc3nn(C)c(C)c23)cc(C#Cc2cnc(-n3cnc(C)c3)nc2)n1 (centres unmarked) [Example 21, N-(6-{2-[2-(4-methyl-1H-imidazol-1-yl)pyrimidin-5-yl]ethynyl}-4-{trimethyl-2H-pyrazolo[3,4-d]pyrimidin-4-yl}pyridin-2-yl)-2-(methyl-amino)propanamide] | 9.00 |
| CNC(C)C(=O)Nc1cc(-c2nc(C)nc3nn(C)c(C)c23)cc(C#Cc2cccs2)n1 (centres unmarked) [Example 22, 2-(methylamino)-N-{6-[2-(thiophen-2-yl)ethynyl]-4-{trimethyl-2H-pyrazolo[3,4-d]pyrimidin-4-yl}pyridin-2-yl}propanamide] | 9.00 |
| CNC(C)C(=O)Nc1cc(-c2cccc3cnn(C)c23)c(Cl)c(C#Cc2ccc3c(C)nccc3c2)n1 (centres unmarked) [Example 24, N-[5-chloro-4-(1-methyl-1H-indazol-7-yl)-6-[2-(1-methylisoquinolin-6-yl)ethynyl]pyridin-2-yl]-2-(methylamino)propanamide] | 7.92 |
| CNC(C)C(=O)Nc1cc(-c2cccc3cnn(C)c23)c(OC)c(C#Cc2ccccc2)n1 (centres unmarked) [Example 26, N-[5-methoxy-4-(1-methyl-1H-indazol-7-yl)-6-(2-phenylethynyl)pyridin-2-yl]-2-(methylamino)propanamide] | 7.92 |
| CNC(C)C(=O)Nc1cc(-c2cccc3ncccc23)c(OC)c(C#Cc2ccccc2)n1 (centres unmarked) [Example 27, N-[5-methoxy-6-(2-phenylethynyl)-4-(quinolin-5-yl)pyridin-2-yl]-2-(methyl-amino)propanamide] | 6.87 |
| CNC(C)C(=O)Nc1cc(-c2ccncc2)cc(C#Cc2ccccc2)n1 (centres unmarked) [Example 28, 2-(methylamino)-N-[6-(2-phenylethynyl)-4-(pyridin-4-yl)pyridin-2-yl]propanamide] | 6.55 |
| CNC(C)C(=O)Nc1cc(-c2cncc(F)c2)cc(C#Cc2ccccc2)n1 (centres unmarked) [Example 29, N-[4-(5-fluoropyridin-3-yl)-6-(2-phenylethynyl)pyridin-2-yl]-2-(methylamino)propanamide] | 6.90 |
| CNC(C)C(=O)Nc1cc(-c2ccc(C(F)(F)F)nc2)cc(C#Cc2ccccc2)n1 (centres unmarked) [Example 30, 2-(methylamino)-N-[6-(2-phenylethynyl)-4-[6-(trifluoromethyl)pyridin-3-yl]pyridin-2-yl]propanamide] | 6.45 |
